Format in all cases: functional
One test deals with SNB-75. In words: Antiproliferative activity against human SNB-75 cells assessed as mean cell growth at 10 uM incubated for 48 hrs by SRB assay relative to control. (In general: In SRB staining, fixed cells bind dye roughly in proportion to their protein.)
The next test deals with A498. In words: Antiproliferative activity against human A498 cells assessed as mean cell growth at 10 uM incubated for 48 hrs by SRB assay relative to control.
The subject of a further test is UO-31. The test is described as follows: Antiproliferative activity against human UO-31 cells assessed as mean cell growth at 10 uM incubated for 48 hrs by SRB assay relative to control.
Another test concerns SK-OV-3. In words: Antiproliferative activity against human SK-OV-3 cells assessed as mean cell growth at 10 uM incubated for 48 hrs by SRB assay relative to control.
A further test concerns NCI-H226. The test is described as follows: Antiproliferative activity against human NCI-H226 cells assessed as mean cell growth at 10 uM incubated for 48 hrs by SRB assay relative to control.
Another test deals with NCI-H522. In words: Antiproliferative activity against human NCI-H522 cells assessed as mean cell growth at 10 uM incubated for 48 hrs by SRB assay relative to control.
The next test has as its system DU-145. The test is described as follows: Antiproliferative activity against human DU-145 cells assessed as mean cell growth at 10 uM incubated for 48 hrs by SRB assay relative to control.
The subject of the next test is MDA-MB-468. In words: Antiproliferative activity against human MDA-MB-468 cells assessed as mean cell growth at 10 uM incubated for 48 hrs by SRB assay relative to control.

With `CN1C(=O)N(C)C2Nn3c(s/c(=C\c4ccc(C(F)(F)F)cc4)c3=O)=NC21` (configuration not stated), the Activity with SNB-75 came to 102%.
With `CN1C(=O)N(C)C2Nn3c(s/c(=C\c4ccccc4)c3=O)=NC21` (configuration not stated), in the test on A498, the Activity worked out at 97%.
In the case of `COc1ccc(/C=c2\sc3n(c2=O)NC2C(N=3)N(C)C(=O)N2C)cc1` (configuration not stated), the Activity in the test with UO-31 worked out at 98%.
As for `CN1C(=O)N(C)C2Nn3c(s/c(=C\c4ccc(F)cc4)c3=O)=NC21` (configuration not stated), in the test with SK-OV-3, the Activity is 103%.
Turning to `CN1C(=O)N(C)C2Nn3c(s/c(=C\c4cccc([N+](=O)[O-])c4)c3=O)=NC21` (configuration not stated), the Activity in the test with NCI-H226 is on record as 92%.
In the case of `CCN1C(=O)N(CC)C2Nn3c(s/c(=C\c4ccc(F)cc4)c3=O)=NC21` (configuration not stated), the Activity in the test on NCI-H522 came to 101%.
Turning to `CN1C(=O)N(C)C2Nn3c(s/c(=C\c4ccc(Br)cc4)c3=O)=NC21` (configuration not stated), the Activity in the test on UO-31 is on record as 98%.
Regarding `CC(=O)O[C@H]1C(=O)[C@@]2(C)[C@H]([C@H](OC(=O)c3ccccc3)[C@]3(O)C[C@H](OC(=O)[C@H](O)[C@@H](NC(=O)c4ccccc4)c4ccccc4)C(C)=C1C3(C)C)[C@]1(OC(C)=O)CO[C@@H]1C[C@@H]2O` [PACLITAXEL], in the test with DU-145, the Activity was determined as 15%.
Consider `CCN1C(=O)N(CC)C2Nn3c(s/c(=C\c4ccc(C(F)(F)F)cc4)c3=O)=NC21` (configuration not stated), for which the Activity in the test with UO-31 worked out at 100%.
Take `CN1C(=O)N(C)C2Nn3c(s/c(=C\c4ccc([N+](=O)[O-])cc4)c3=O)=NC21` (configuration not stated): the Activity in the test with A498 came out at 99%.
Take `CCN1C(=O)N(CC)C2Nn3c(s/c(=C\c4ccc([N+](=O)[O-])cc4)c3=O)=NC21` (configuration not stated): the Activity in the test on MDA-MB-468 is 67%.
For the compound `CCN1C(=O)N(CC)C2Nn3c(s/c(=C\c4ccc(Br)cc4)c3=O)=NC21` (configuration not stated), in the test on SNB-75, the Activity was determined as 95%.

Source of the values: ChEMBL document CHEMBL5385976, “Recognition of arylmethylidene derivatives of imidazothiazolotriazinones as novel tubulin polymerization inhibitors” (RSC Med Chem, 2024).
